# Measurements published in ChEMBL document CHEMBL1201862, “PubChem BioAssay data set” (2004).
# Values joined by “and” are separate entries in the source; they are usually repeats but may differ in a detail not shown here. Identical values can stand only once.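 Dose response: 5 concentrations. Exposure: 48 h. Format: 96-well plates. Endpoint: linear interpolation; highest concentration if not reached. GI50 marks 50% less growth.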 Active and inactive are the calls of the source. Rule as the data show it: active = GI50 up to about 1.1 µM and inactive = higher.
# How the values were obtained:
# Assay in all cases: NCI anticancer screen, dose series, 48 h
# SW-620 = test system: SW-620
# TK-10 = test system: TK-10
# SF-295 = test system: SF-295
# NCI-H522 = test system: NCI-H522
# A498 = test system: A498
# PC-3 = test system: PC-3
# Hs-578T = test system: Hs-578T
# HOP-62 = test system: HOP-62
# BT-549 = test system: BT-549
# SN12C = test system: SN12C
# EKVX = test system: EKVX
# OVCAR-5 = test system: OVCAR-5
# SK-MEL-2 = test system: SK-MEL-2
# OVCAR-4 = test system: OVCAR-4
# HCC 2998 = test system: HCC 2998
# HCT-15 = test system: HCT-15
# SK-MEL-28 = test system: SK-MEL-28
# Malme-3M = test system: Malme-3M
# SNB-19 = test system: SNB-19
# LOX IMVI = test system: LOX IMVI
# SK-MEL-5 = test system: SK-MEL-5
# MDA-N = test system: MDA-N
# NCI-H460 = test system: NCI-H460
# SF-268 = test system: SF-268
# COLO 205 = test system: COLO 205
# UACC-62 = test system: UACC-62
# NCI-H23 = test system: NCI-H23
# ACHN = test system: ACHN
# MCF7 = test system: MCF7
# MDA-MB-231 = test system: MDA-MB-231
# NCI/ADR-RES = test system: NCI/ADR-RES
# RXF 393 = test system: RXF 393
# MOLT-4 = test system: MOLT-4
# SR = test system: SR
# M14 = test system: M14
# A549 = test system: A549
# T47D = test system: T47D
# RPMI-8226 = test system: RPMI-8226
# 786-0 = test system: 786-0
# DU-145 = test system: DU-145
# IGROV-1 = test system: IGROV-1
# OVCAR-8 = test system: OVCAR-8
# OVCAR-3 = test system: OVCAR-3
# HT-29 = test system: HT-29
# HCT-116 = test system: HCT-116
# K562 = test system: K562
# NCI-H226 = test system: NCI-H226
# SF-539 = test system: SF-539
# UACC-257 = test system: UACC-257
# MDA-MB-435 = test system: MDA-MB-435
# CAKI-1 = test system: CAKI-1
# KM12 = test system: KM12
# U-251 = test system: U-251
# HL-60 = test system: HL-60
# UO-31 = test system: UO-31
# CCRF-CEM = test system: CCRF-CEM
smiles,measurement,setting,value
CC(=O)OCC1OC(SC2=N/C(=C\c3ccc(Br)s3)C(=O)N2c2ccccc2)C(OC(C)=O)C(OC(C)=O)C1OC(C)=O (stereo not given),GI50,SW-620,> 100 µM (inactive) and 92 µM (inactive)
same,GI50,TK-10,40.6 µM (inactive) and 60.3 µM (inactive)
same,GI50,SF-295,39.8 µM (inactive) and 58.1 µM (inactive)
same,GI50,NCI-H522,21.8 µM (inactive) and 25.5 µM (inactive)
same,GI50,A498,41.1 µM (inactive) and 58.7 µM (inactive)
same,GI50,PC-3,34.1 µM (inactive) and 58.5 µM (inactive)
same,GI50,Hs-578T,48.1 µM (inactive) and 35.2 µM (inactive)
same,GI50,HOP-62,55 µM (inactive) and 41.7 µM (inactive)
same,GI50,BT-549,24.4 µM (inactive) and 41.6 µM (inactive)
same,GI50,SN12C,50.6 µM (inactive)
same,GI50,EKVX,34.3 µM (inactive) and 30.7 µM (inactive)
same,GI50,OVCAR-5,> 100 µM (inactive)
same,GI50,SK-MEL-2,16.7 µM (inactive) and 32.6 µM (inactive)
same,GI50,OVCAR-4,31.8 µM (inactive) and 41.9 µM (inactive)
same,GI50,HCC 2998,59 µM (inactive) and 36.5 µM (inactive)
same,GI50,HCT-15,> 100 µM and 66.8 µM
same,GI50,SK-MEL-28,> 100 µM (inactive) and 82.8 µM (inactive)
same,GI50,Malme-3M,50.6 µM (inactive) and 53.6 µM (inactive)
same,GI50,SNB-19,56.4 µM (inactive) and 37.1 µM (inactive)
same,GI50,LOX IMVI,47.8 µM (inactive) and 64.3 µM (inactive)
same,GI50,SK-MEL-5,52.2 µM (inactive) and 42.9 µM (inactive)
same,GI50,MDA-N,> 100 µM (inactive) and 54.6 µM (inactive)
same,GI50,NCI-H460,30.1 µM (inactive) and 38.1 µM (inactive)
same,GI50,SF-268,> 100 µM (inactive) and 55.8 µM (inactive)
same,GI50,COLO 205,41.2 µM (inactive) and 57.9 µM (inactive)
same,GI50,UACC-62,30.6 µM (inactive) and 30.9 µM (inactive)
same,GI50,NCI-H23,19 µM (inactive) and 33.4 µM (inactive)
same,GI50,ACHN,32.1 µM (inactive) and 52.1 µM (inactive)
same,GI50,MCF7,42 µM (inactive) and 78.9 µM (inactive)
same,GI50,MDA-MB-231,58.5 µM (inactive) and 42.9 µM (inactive)
same,GI50,NCI/ADR-RES,40.9 µM (inactive) and 43.1 µM (inactive)
same,GI50,RXF 393,12.1 µM (inactive) and 9.64 µM (inactive)
[O-][S+](Nc1ccccc1)c1ccc(Cl)cc1 (stereo not given),GI50,SW-620,> 100 µM (inactive)
same,GI50,TK-10,> 100 µM (inactive)
same,GI50,MOLT-4,31.4 µM (inactive)
same,GI50,SF-295,> 100 µM (inactive)
same,GI50,SR,16.4 µM (inactive)
same,GI50,M14,> 100 µM (inactive)
same,GI50,NCI-H522,73.3 µM (inactive)
same,GI50,A549,48.4 µM (inactive)
same,GI50,T47D,50.1 µM (inactive)
same,GI50,RPMI-8226,> 100 µM (inactive)
same,GI50,Hs-578T,38.1 µM (inactive)
same,GI50,786-0,> 100 µM (inactive)
same,GI50,HOP-62,> 100 µM (inactive)
same,GI50,BT-549,32.6 µM (inactive)
same,GI50,SN12C,> 100 µM (inactive)
same,GI50,DU-145,91.4 µM (inactive)
same,GI50,EKVX,> 100 µM (inactive)
same,GI50,OVCAR-5,> 100 µM (inactive)
same,GI50,IGROV-1,24.7 µM (inactive)
same,GI50,SK-MEL-2,> 100 µM (inactive)
same,GI50,OVCAR-8,> 100 µM (inactive)
same,GI50,OVCAR-4,> 100 µM (inactive)
same,GI50,HCC 2998,69.7 µM (inactive)
same,GI50,OVCAR-3,> 100 µM (inactive)
same,GI50,HCT-15,75.2 µM
same,GI50,SK-MEL-28,> 100 µM (inactive)
same,GI50,HT-29,> 100 µM (inactive)
same,GI50,Malme-3M,> 100 µM (inactive)
same,GI50,HCT-116,61.5 µM (inactive)
same,GI50,SNB-19,> 100 µM (inactive)
same,GI50,K562,> 100 µM (inactive)
same,GI50,NCI-H226,> 100 µM (inactive)
same,GI50,LOX IMVI,> 100 µM (inactive)
same,GI50,SF-539,18.9 µM (inactive)
same,GI50,SK-MEL-5,35.9 µM (inactive)
same,GI50,UACC-257,> 100 µM (inactive)
same,GI50,MDA-MB-435,31.4 µM (inactive)
same,GI50,CAKI-1,> 100 µM (inactive)
same,GI50,MDA-N,> 100 µM (inactive)
same,GI50,NCI-H460,56 µM (inactive)
same,GI50,SF-268,16.2 µM (inactive)
same,GI50,COLO 205,> 100 µM (inactive)
same,GI50,UACC-62,14.9 µM (inactive)
same,GI50,NCI-H23,> 100 µM (inactive)
same,GI50,ACHN,> 100 µM (inactive)
same,GI50,MCF7,> 100 µM (inactive)
same,GI50,KM12,17.5 µM (inactive)
same,GI50,U-251,23.6 µM (inactive)
same,GI50,HL-60,> 100 µM (inactive)
same,GI50,MDA-MB-231,> 100 µM (inactive)
same,GI50,UO-31,44.8 µM (inactive)
same,GI50,NCI/ADR-RES,64.9 µM (inactive)
same,GI50,CCRF-CEM,89.9 µM (inactive)
